In one test the test system is REC-1 cells. The test is described as follows: Growth inhibitory activity in BTK-dependent REC-1 cell line (CellTiter-Glo). In kind it is cell-based. Conditions: Homo sapiens, Rec1, 144 h, 6 days after administration, read-out: REC1 Cellular Grwoth Inhibition IC50. As to the method:
REC-1 (ATCC) and REC-1 BTK^C481S cells were plated in 96-well plates at 8,000 cells/well in 90 ul of RPMI growth medium containing 10% heat-inactivated FBS and 1× Penicillin Streptomycin, and then incubated at 37° C. overnight. The following day, the test compound was administered to the cells by using 10× compound stock solution prepared in growth medium at various concentrations. After administration of the compound, cells were then incubated at 37° C. for 6 days. Before CellTiter-Glo assay, the plates were equilibrated at room temperature for approximately 10 minutes. 100 ul of CellTiter-Glo® Reagent (Promega) was added to each well. The plates were then incubated at room temperature for 10 minutes and luminescence was recorded by EnSpire plate reader (PerkinElmer).
The GI50 values (i.e., the concentration of test compound at which 50% of cell growth are inhibited) were calculated. A designation of “A” corresponds to a […] value less than 20 nM. A designation of “B” corresponds to a […] value greater than or equal to 20 nM and less than 200 nM. A designation of “C” corresponds to a […] value greater than or equal to 200 nM.
In general terms: In ATP-based viability assays light output follows the ATP content of the culture.

The target in the next test is T1, BTK (Homo sapiens, UniProt Q06187).
T1 construct: BTK Degradative Activity of Exemplary Compounds of the Present Disclosure in a RAMOS Cell Line; host or cells: RAMOS
The test is described as follows: BTK degradative activity in a RAMOS cell line (Western blot). Conditions: 6 hours after administration, read-out: RAMOS BTK Degradation DC50. In kind it is cell-based. The procedure, abridged:
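Ramos cells in RPMI with 10% FBS were treated with compound in DMSO at various concentrations for 6 h at 37 °C. BTK was measured by Western blot against GAPDH with infrared fluorescent detection and band quantification. DC50 is the concentration at which 50% of BTK is degraded.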
(Immunoblotting shows a protein as a band on a membrane.)

T1 sequence (Q06187 whole entry): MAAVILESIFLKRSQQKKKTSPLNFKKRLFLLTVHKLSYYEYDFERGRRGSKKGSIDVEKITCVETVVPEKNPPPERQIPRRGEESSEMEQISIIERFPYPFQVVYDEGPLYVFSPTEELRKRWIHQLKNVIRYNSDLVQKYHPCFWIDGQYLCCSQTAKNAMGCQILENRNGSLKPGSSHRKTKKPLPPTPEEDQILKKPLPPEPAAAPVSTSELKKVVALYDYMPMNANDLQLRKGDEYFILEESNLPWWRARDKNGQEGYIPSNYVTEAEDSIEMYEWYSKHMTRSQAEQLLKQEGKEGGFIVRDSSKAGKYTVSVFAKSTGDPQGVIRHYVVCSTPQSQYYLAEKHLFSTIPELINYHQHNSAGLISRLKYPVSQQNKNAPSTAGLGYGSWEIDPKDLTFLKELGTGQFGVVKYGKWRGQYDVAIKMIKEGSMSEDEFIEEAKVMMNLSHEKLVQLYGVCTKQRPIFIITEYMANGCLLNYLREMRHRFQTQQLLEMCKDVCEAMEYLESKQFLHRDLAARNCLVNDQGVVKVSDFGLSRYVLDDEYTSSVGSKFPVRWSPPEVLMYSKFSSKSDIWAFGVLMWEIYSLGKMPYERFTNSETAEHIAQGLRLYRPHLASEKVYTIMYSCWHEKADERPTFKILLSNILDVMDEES

Regarding `COc1ccc(F)cc1C(=O)NCc1ccc(-c2nn(-c3ccc(N4CCC(CN5CCN(c6ccc7c(c6)C(=O)N(C6CCC(=O)NC6=O)C7=O)CC5)CC4)c(F)c3)c3ncnc(N)c23)cc1` (centres unmarked) [Compound 50, N-(4-(4-amino-1-(4-(4-((4-(2-(2,6-dioxopiperidin-3-yl)-1,3-dioxoisoindolin-5-yl)piperazin-1-yl)methyl)piperidin-1-yl)-3-fluorophenyl)-1H-pyrazolo[3,4-d]pyrimidin-3-yl)benzyl)-5-fluoro-2-methoxybenzamide], the IC50 in the test with REC-1 cells is under 0.02 µM. For the same compound, the DC50 at BTK was 0.01 to 0.1 µM.

For `COc1ccc(F)cc1C(=O)NCc1ccc(-c2nn(-c3ccc(N4CCC(CN5CCN(c6cc7c(cc6F)C(=O)N([C@H]6CCC(=O)NC6=O)C7)CC5)CC4)c(F)c3)c3ncnc(N)c23)cc1` [Compound 51, (S)—N-(4-(4-amino-1-(4-(4-((4-(2-(2,6-dioxopiperidin-3-yl)-6-fluoro-1-oxoisoindolin-5-yl)piperazin-1-yl)methyl)piperidin-1-yl)-3-fluorophenyl)-1H-pyrazolo[3,4-d]pyrimidin-3-yl)benzyl)-5-fluoro-2-methoxybenzamide], the IC50 in the test on REC-1 cells was under 0.02 µM. Also, on BTK, the DC50 is under 0.01 µM.

Consider `COc1ccc(F)cc1C(=O)NCc1ccc(-c2nn(C3CCN(c4ccc(CN5CCN(c6ccc7c(c6)CN([C@H]6CCC(=O)NC6=O)C7=O)CC5)cn4)CC3)c3ncnc(N)c23)cc1` [Compound 52, (S)—N-(4-(4-amino-1-(1-(5-((4-(2-(2,6-dioxopiperidin-3-yl)-1-oxoisoindolin-5-yl)piperazin-1-yl)methyl)pyridin-2-yl)piperidin-4-yl)-1H-pyrazolo[3,4-d]pyrimidin-3-yl)benzyl)-5-fluoro-2-methoxybenzamide], for which the IC50 with REC-1 cells was under 0.02 µM. For the same compound, the DC50 on BTK is under 0.01 µM.

Turning to `COc1ccc(F)cc1C(=O)NCc1ccc(-c2nn(C3CCN(c4ccc(CN5CCN(c6ccc7c(c6)CN([C@H]6CCC(=O)NC6=O)C7=O)CC5)cc4)CC3)c3ncnc(N)c23)cc1` [Compound 53, (S)—N-(4-(4-amino-1-(1-(4-((4-(2-(2,6-dioxopiperidin-3-yl)-1-oxoisoindolin-5-yl)piperazin-1-yl)methyl)phenyl)piperidin-4-yl)-1H-pyrazolo[3,4-d]pyrimidin-3-yl)benzyl)-5-fluoro-2-methoxybenzamide], the IC50 in the test on REC-1 cells is under 0.02 µM. Further, the DC50 at BTK is under 0.01 µM.

Turning to `COc1ccc(F)cc1C(=O)NCc1ccc(-c2nn(C3CN(c4ccc(CN5CCN(c6ccc7c(c6)CN([C@H]6CCC(=O)NC6=O)C7=O)CC5)cn4)C3)c3ncnc(N)c23)cc1` [Compound 54, (S)—N-(4-(4-amino-1-(1-(5-((4-(2-(2,6-dioxopiperidin-3-yl)-1-oxoisoindolin-5-yl)piperazin-1-yl)methyl)pyridin-2-yl)azetidin-3-yl)-1H-pyrazolo[3,4-d]pyrimidin-3-yl)benzyl)-5-fluoro-2-methoxybenzamide], the IC50 in the test on REC-1 cells was under 0.02 µM. Further, the DC50 at BTK was under 0.01 µM.

As to `COc1ccc(F)cc1C(=O)NCc1ccc(-c2nn(C3CCN(C(=O)CCCCN4CCN(c5ccc6c(c5)CN([C@H]5CCC(=O)NC5=O)C6=O)CC4)C3)c3ncnc(N)c23)cc1` (stereo partly drawn) [Compound 55, N-(4-(4-amino-1-(1-(5-(4-(2-((S)-2,6-dioxopiperidin-3-yl)-1-oxoisoindolin-5-yl)piperazin-1-yl)pentanoyl)pyrrolidin-3-yl)-1H-pyrazolo[3,4-d]pyrimidin-3-yl)benzyl)-5-fluoro-2-methoxybenzamide], in the test with REC-1 cells, the IC50 was at least 0.2 µM. The DC50 at BTK is 0.01 to 0.1 µM.

Consider `COc1ccc(F)cc1C(=O)NCc1ccc(-c2nn(C3CCN(c4ccc(CN5CCN(c6ccc7c(c6)CN([C@H]6CCC(=O)NC6=O)C7=O)CC5)nc4)C3)c3ncnc(N)c23)cc1` (stereo partly drawn) [Compound 58, N-(4-(4-amino-1-(1-(6-((4-(2-((S)-2,6-dioxopiperidin-3-yl)-1-oxoisoindolin-5-yl)piperazin-1-yl)methyl)pyridin-3-yl)pyrrolidin-3-yl)-1H-pyrazolo[3,4-d]pyrimidin-3-yl)benzyl)-5-fluoro-2-methoxybenzamide], for which the IC50 in the test on REC-1 cells was at least 0.2 µM. Further, the DC50 at BTK is at least 0.1 µM.

Turning to `COc1ccc(F)cc1C(=O)NCc1ccc(-c2nn(C3CCN(c4ccc(CN5CCN(c6ccc7c(c6)CN([C@H]6CCC(=O)NC6=O)C7=O)CC5)cc4)C3)c3ncnc(N)c23)cc1` (stereo partly drawn) [Compound 60, N-(4-(4-amino-1-(1-(4-((4-(2-((S)-2,6-dioxopiperidin-3-yl)-1-oxoisoindolin-5-yl)piperazin-1-yl)methyl)phenyl)pyrrolidin-3-yl)-1H-pyrazolo[3,4-d]pyrimidin-3-yl)benzyl)-5-fluoro-2-methoxybenzamide], the IC50 with REC-1 cells lay within 0.02 to 0.2 µM. The DC50 at BTK was at least 0.1 µM.

As to `COc1ccc(F)cc1C(=O)NCc1ccc(-c2nn(C3CN(c4ccc(CN5CCN(c6ccc7c(c6)CN([C@H]6CCC(=O)NC6=O)C7=O)CC5)cc4)C3)c3ncnc(N)c23)cc1` [Compound 61, (S)—N-(4-(4-amino-1-(1-(4-((4-(2-(2,6-dioxopiperidin-3-yl)-1-oxoisoindolin-5-yl)piperazin-1-yl)methyl)phenyl)azetidin-3-yl)-1H-pyrazolo[3,4-d]pyrimidin-3-yl)benzyl)-5-fluoro-2-methoxybenzamide], in the test on REC-1 cells, the IC50 was under 0.02 µM. In addition, the DC50 on BTK was under 0.01 µM.

As for `COc1ccc(F)cc1C(=O)NCc1ccc(-c2nn(C3CN(C(=O)c4ccc(CN5CCN(c6ccc7c(c6)CN([C@H]6CCC(=O)NC6=O)C7=O)CC5)cc4)C3)c3ncnc(N)c23)cc1` [Compound 62, (S)—N-(4-(4-amino-1-(1-(4-((4-(2-(2,6-dioxopiperidin-3-yl)-1-oxoisoindolin-5-yl)piperazin-1-yl)methyl)benzoyl)azetidin-3-yl)-1H-pyrazolo[3,4-d]pyrimidin-3-yl)benzyl)-5-fluoro-2-methoxybenzamide], the IC50 in the test with REC-1 cells was 0.02 to 0.2 µM. Moreover, the DC50 on BTK was under 0.01 µM.

Take `COc1ccc(C(=O)N2CCCN(CC3CCN(c4ccc(Nc5ncnc6[nH]cc(C(=O)c7ccc(Oc8ccccc8)cc7Cl)c56)cc4F)CC3)CC2)cc1N1CCC(=O)NC1=O` [Compound 75, 1-(5-(4-((1-(4-((5-(2-chloro-4-phenoxybenzoyl)-7H-pyrrolo[2,3-d]pyrimidin-4-yl)amino)-2-fluorophenyl)piperidin-4-yl)methyl)-1,4-diazepane-1-carbonyl)-2-methoxyphenyl)dihydropyrimidine-2,4(1H,3H)-dione]: the DC50 on BTK was in the range of 0.01 to 0.1 µM.

For the compound `COc1ccc(C(=O)N2CCN(CCC3CCN(c4ccc(Nc5ncnc6[nH]cc(C(=O)c7ccc(Oc8ccccc8)cc7Cl)c56)cc4F)CC3)CC2)cc1N1CCC(=O)NC1=O` [Compound 76, 1-(5-(4-(2-(1-(4-((5-(2-chloro-4-phenoxybenzoyl)-7H-pyrrolo[2,3-d]pyrimidin-4-yl)amino)-2-fluorophenyl)piperidin-4-yl)ethyl)piperazine-1-carbonyl)-2-methoxyphenyl)dihydropyrimidine-2,4(1H,3H)-dione], on BTK, the DC50 was at least 0.1 µM.

Regarding `COc1ccc(C(=O)N2CCC(N3CCC(CC(=O)N4CCC[C@@H](Nc5ncnc6[nH]cc(C(=O)c7ccc(Oc8ccccc8)cc7Cl)c56)C4)CC3)CC2)cc1N1CCC(=O)NC1=O` [Compound 77, (R)-1-(5-(4-(2-(3-((5-(2-chloro-4-phenoxybenzoyl)-7H-pyrrolo[2,3-d]pyrimidin-4-yl)amino)piperidin-1-yl)-2-oxoethyl)-[1,4′-bipiperidine]-1′-carbonyl)-2-methoxyphenyl) dihydropyrimidine-2,4(1H,3H)-dione], at BTK, the 50% degradation concentration (DC50) was at least 0.1 µM.

Turning to `COc1ccc(C(=O)N2CCN(CCCCCCC(=O)N3CCC(Nc4ncnc5[nH]cc(C(=O)c6ccc(Oc7ccccc7)cc6Cl)c45)CC3)CC2)cc1N1CCC(=O)NC1=O` [Compound 78, 1-(5-(4-(7-(4-((5-(2-chloro-4-phenoxybenzoyl)-7H-pyrrolo[2,3-d]pyrimidin-4-yl)amino)piperidin-1-yl)-7-oxoheptyl)piperazine-1-carbonyl)-2-methoxyphenyl)dihydropyrimidine-2,4(1H,3H)-dione], the DC50 at BTK is under 0.01 µM.

For `COc1ccc(C(=O)N2CCCN(Cc3ccc(C(=O)N4CCC(Nc5ncnc6[nH]cc(C(=O)c7ccc(Oc8ccccc8)cc7Cl)c56)CC4)cc3)CC2)cc1N1CCC(=O)NC1=O` [Compound 79, 1-(5-(4-(4-(4-((5-(2-chloro-4-phenoxybenzoyl)-7H-pyrrolo[2,3-d]pyrimidin-4-yl)amino)piperidine-1-carbonyl)benzyl)-1,4-diazepane-1-carbonyl)-2-methoxyphenyl)dihydropyrimidine-2,4(1H,3H)-dione], on BTK, the DC50 was at least 0.1 µM.

For `COc1ccc(C(=O)N2CCN(Cc3ccc(C(=O)N4CCC(Nc5ncnc6[nH]cc(C(=O)c7ccc(Oc8ccccc8)cc7Cl)c56)CC4)cc3)CC2)cc1N1CCC(=O)NC1=O` [Compound 80, 1-(5-(4-(4-(4-((5-(2-chloro-4-phenoxybenzoyl)-7H-pyrrolo[2,3-d]pyrimidin-4-yl)amino)piperidine-1-carbonyl)benzyl)piperazine-1-carbonyl)-2-methoxyphenyl)dihydropyrimidine-2,4(1H,3H)-dione], at BTK, the DC50 was at least 0.1 µM.

Broadly, the IC50 is the point on the concentration scale where inhibition reaches its midpoint. As usually defined, the DC50 is the midpoint of the concentration-degradation curve.
